From patent publication US20160022668A1, “APPLICATION OF CINCHONA ALKALOID DERIVATIVES AS CYTOTOXIC COMPOUNDS” (ADAM MICKIEWICZ UNIVERSITY, priority 2014, published 2016)
Values joined by “and” are separate entries in the source; they are usually repeats but may differ in a detail not shown here. Equal values may be shown once. Read-outs that look alike come from different tables or passages of the source.

Tests used:
[1] = test system: breast cancer cells (MCF-7); conditions: in vitro; Martirosyan et al. 2004; read-out: IC50, inhibition of growth and differentiation of breast cancer cells (MCF-7); cited from earlier work
[2] = test system: MCF-7 line (breast cancer); experiment: Sulphorhodamine B cytotoxicity test, MCF-7 line; format: cell-based; conditions: for IC50 / Cytotoxic activity class, MCF-7 line (breast cancer) / Cytotoxic activity, IC50, MCF-7 line (breast cancer): 72 hours incubation, sulphorhodamine B
Protocol: (§1) Cytotoxic activity tests were performed using the following cancer cell lines: MCF-7 (breast cancer), HeLa (cervical cancer) A549 (pulmonary cancer) and KB (nasopharynx cancer) obtained from ECACC (European Collection of Cell Cultures). Cytotoxicity tests were carried out using a standard procedure with sulphorhodamine B. They involved incubation of the cancer cell lines in the logarithmic growth phase for 72 hours with the compound tested and, subsequently, spectrophotometric determination of the degree of cell growth inhibition using adsorption of a dye (sulphorhodamine B) which binds cellular proteins. The determination was carried out according to a procedure reported in: Vichai, V., Kirtikara, K. […] Solutions of the test compounds were prepared in DMSO in the following concentration range: 0.05; 0.1; 0.5; 1; 5; 10; 50; 100 μM. The cells of the lines tested were treated with the solutions of the test compounds in a laminar-flow chamber which ensured sterile working conditions according to the following procedure: the first three wells were used as a control: they contained 20 μL of DMSO only; successive solutions of the test compound were added to subsequent wells (20 μL), starting with the lowest concentration (three wells for each concentration level). Subsequently, the plates were placed in an incubator for 72 hours. After the end of incubation, the adhered cells were fixed by adding 500 μL of cold (4° C.) 50% trichloroacetic acid (TCA) and incubated at 4° C. for 1 hour. Subsequently, each well was rinsed with sterile water and dried. The operation was repeated five times. The fixed cells were stained for 30 minutes by adding 500 μL of 0.4% of a dye solution (sulphorhodamine B) dissolved in 1% acetic acid. […] Subsequently, the plates were dried in air for approx. 5 minutes. Any […] dye was dissolved by adding 1500 μL of […] Tris-base buffer (trishydroxymethylaminomethane) to each well and shaken using an orbital shaker for 5 minutes. […] Depending on the type of the cell line, the following growth media were used: • the MCF-7 line was grown in Dulbecco's Modified Eagle's Medium (DME) from Sigma (cat. no. […] R8758). […] Program Procedure. Instruction and technical documentation change notice, instruction 14. Screening data summary interpretation and outline of current screening. Edition NCI NIH, Bethesda Rev., 1980, 6, 31-62).

HeLa (cervical cancer) = experiment: Sulphorhodamine B cytotoxicity test, HeLa line; format: cell-based; conditions: for IC50 / Cytotoxic activity class, HeLa (cervical cancer) / Cytotoxic activity, IC50, HeLa (cervical cancer): 72 hours incubation, sulphorhodamine B
Protocol: as §1

A549 (lung cancer) = experiment: Sulphorhodamine B cytotoxicity test, A549 line; format: cell-based; conditions: for IC50 / Cytotoxic activity class, A549 (lung cancer) / Cytotoxic activity, IC50, A549 (lung cancer): 72 hours incubation, sulphorhodamine B
Protocol: as §1

KB (nasopharynx cancer) = experiment: Sulphorhodamine B cytotoxicity test, KB line; format: cell-based; conditions: for IC50 / Cytotoxic activity, IC50, KB (nasopharynx cancer): 72 hours incubation, sulphorhodamine B
Protocol: Cytotoxic activity tests were performed using the following cancer cell lines: MCF-7 (breast cancer), HeLa (cervical cancer) A549 (pulmonary cancer) and KB (nasopharynx cancer) obtained from ECACC (European Collection of Cell Cultures).
Cytotoxicity tests were carried out using a standard procedure with sulphorhodamine B. They involved incubation of the cancer cell lines in the logarithmic growth phase for 72 hours with the compound tested and, subsequently, spectrophotometric determination of the degree of cell growth inhibition using adsorption of a dye (sulphorhodamine B) which binds cellular proteins. The determination was carried out according to a procedure reported in: Vichai, V., Kirtikara, K. Nature Protocols, 2006, 1, 1112.
Preparation of Cells for the Experiment:
Cancerous cells of the cell line tested in the logarithmic growth phase were seeded onto 24-well plates in a quantity of 20,000 cells/2 mL of the growth medium per well and, subsequently, incubated in an incubator at 37° C., in the 5% CO2 atmosphere for 24 hours.
Preparation of Test Compound Solutions:
Solutions of the test compounds were prepared in DMSO in the following concentration range: 0.05; 0.1; 0.5; 1; 5; 10; 50; 100 μM.
The cells of the lines tested were treated with the solutions of the test compounds in a laminar-flow chamber which ensured sterile working conditions according to the following procedure: the first three wells were used as a control: they contained 20 μL of DMSO only; successive solutions of the test compound were added to subsequent wells (20 μL), starting with the lowest concentration (three wells for each concentration level). Subsequently, the plates were placed in an incubator for 72 hours.
After the end of incubation, the adhered cells were fixed by adding 500 μL of cold (4° C.) 50% trichloroacetic acid (TCA) and incubated at 4° C. for 1 hour. Subsequently, each well was rinsed with sterile water and dried. The operation was repeated five times. The fixed cells were stained for 30 minutes by adding 500 μL of 0.4% of a dye solution (sulphorhodamine B) dissolved in 1% acetic acid. Any unbound dye was removed by decanting it from the plate, and the cells were washed 4 times with 1% acetic acid. Subsequently, the plates were dried in air for approx. 5 minutes. Any […] dye was dissolved by adding 1500 μL of […] Tris-base buffer (trishydroxymethylaminomethane) to each well and shaken using an orbital shaker for 5 minutes. Subsequently, 200 μL of solution from each well was transferred to each of two wells on a new 96-well plate and absorption of the solutions was determined spectrophotometrically at a wavelength of 490-530 nm using a plate reader.
Depending on the type of the cell line, the following growth media were used: • the MCF-7 line was grown in Dulbecco's Modified Eagle's Medium (DME) from Sigma (cat. no. D5796), • the HeLa, A549 and KB lines were grown in RPMI-1640 Medium from Sigma (cat. no. R8758).
IC50 values, denoting concentration of a compound needed to obtain 50% inhibition of cell growth, were determined for all the derivatives tested.

[3] = Homo sapiens, MCF7, average of three determinations, read-out: Cytotoxic activity, IC50, MCF-7 line (breast cancer)
[4] = Homo sapiens, HeLa, average of three determinations, read-out: Cytotoxic activity, IC50, HeLa (cervical cancer)
[5] = Homo sapiens, A549, average of three determinations, read-out: Cytotoxic activity, IC50, A549 (lung cancer)
[6] = average of three determinations, read-out: Cytotoxic activity, IC50, KB (nasopharynx cancer)
[7] = Homo sapiens, MCF7, read-out: Cytotoxic activity class, MCF-7 line (breast cancer)
[8] = Homo sapiens, HeLa, read-out: Cytotoxic activity class, HeLa (cervical cancer)
[9] = Homo sapiens, A549, read-out: Cytotoxic activity class, A549 (lung cancer)
[10] = read-out: Cytotoxic activity class, KB (nasopharynx cancer)
[11] = average of three determinations
[12] = average of three determinations, read-out: Cytotoxic activity, IC50, MCF-7 line (breast cancer)
[13] = average of three determinations, read-out: Cytotoxic activity, IC50, HeLa (cervical cancer)
[14] = average of three determinations, read-out: Cytotoxic activity, IC50, A549 (lung cancer)

Row | Molecule | IC50 [2, 3] | IC50 (HeLa (cervical cancer); [4]) | IC50 (A549 (lung cancer); [5]) | IC50 (KB (nasopharynx cancer); [6]) | IC50 [2, 7] [µg/mL] | IC50 (HeLa (cervical cancer); [8]) [µg/mL] | IC50 (A549 (lung cancer); [9]) [µg/mL] | IC50 (KB (nasopharynx cancer); [10]) [µg/mL] | Cytotoxic activity class, MCF-7 line (breast cancer) [2] | Cytotoxic activity, IC50, MCF-7 line (breast cancer) [2, 11] [µg/mL] | IC50 [2, 12] [µM] | Cytotoxic activity class, HeLa (cervical cancer) (HeLa (cervical cancer)) | Cytotoxic activity, IC50, HeLa (cervical cancer) (HeLa (cervical cancer); [11]) [µg/mL] | IC50 (HeLa (cervical cancer); [13]) [µM] | Cytotoxic activity class, A549 (lung cancer) (A549 (lung cancer)) | Cytotoxic activity, IC50, A549 (lung cancer) (A549 (lung cancer); [11]) [µg/mL] | IC50 (A549 (lung cancer); [14]) [µM] | Cytotoxic activity, IC50, KB (nasopharynx cancer) (KB (nasopharynx cancer); [11]) [µg/mL] | other results
1 | C=C[C@H]1C[N@@]2CC[C@H]1C[C@H]2[C@H](O)c1ccnc2ccc(OC)cc12 [quinine] | – | – | – | – | – | – | – | – | – | – | – | – | – | – | – | – | – | – | IC50 [1]: 40 µM
2 | C=C[C@H]1C[N@@]2CC[C@H]1C[C@@H]2[C@@H](O)c1ccnc2ccccc12 [cinchonine, reference compound] | > 50 µg/mL | > 50 µg/mL | > 50 µg/mL | > 50 µg/mL | – | – | – | – | – | – | – | – | – | – | – | – | – | – | –
3 | O=c1[nH]c(=O)n([C@H]2C[C@H](O)[C@@H](CO)O2)cc1F [5-fluoro-2′-deoxyuridine, reference compound] | 11.4 µg/mL and 46.3 µM | 13 µg/mL and 52.8 µM | 13.4 µg/mL and 54.4 µM | 13.7 µg/mL and 55.6 µM | 4 to 30 | 4 to 30 | 4 to 30 | 4 to 30 | – | – | – | – | – | – | – | – | – | – | –
4 | O=c1[nH]cc(F)c(=O)[nH]1 [5-fluorouracil, reference compound] | 18.2 µg/mL and 140 µM | 21 µg/mL and 161 µM | 21.4 µg/mL and 165 µM | 22 µg/mL and 169 µM | 4 to 30 | 4 to 30 | 4 to 30 | 4 to 30 | – | – | – | – | – | – | – | – | – | – | –
5 | C#CCO[C@@H](c1ccnc2ccccc12)[C@H]1C[C@@H]2CCN1C[C@@H]2C=C [PCN, 9-O-propargylcinchonine] | – | – | – | 9.63 µM | – | – | – | < 4 | (A) (IC50<4 μg/mL are generally assumed as active (abbreviated as A)) | 3.0 | 9.02 | (A) (IC50<4 μg/mL are generally assumed as active (abbreviated as A)) | 3.5 | 10.5 | (A) (IC50<4 μg/mL are generally assumed as active (abbreviated as A)) | 3.9 | 11.7 | 3.2 | times as cytotoxic as 5FU ([2]; MCF-7 line, ratio of IC50 to 5FU): more than six times; times as active as 5FdU ([2]; MCF-7 line, ratio of IC50 to 5FdU): 3.8 times; times as cytotoxic as 5FU (HeLa (cervical cancer); HeLa line, ratio of IC50 to 5FU): six times; times as cytotoxic as 5FdU (HeLa (cervical cancer); HeLa line, ratio of IC50 to 5FdU): 3.7 times; times as cytotoxic as 5FU (A549 (lung cancer); A549 line, ratio of IC50 to 5FU): more than five times; times as cytotoxic as 5FdU (A549 (lung cancer); A549 line, ratio of IC50 to 5FdU): more than three times; times as high activity compared to 5FU (KB (nasopharynx cancer); KB line, ratio of IC50 to 5FU): 6.8 times; times as high activity compared to 5FdU (KB (nasopharynx cancer); KB line, ratio of IC50 to 5FdU): 4.3 times
6 | 9-O-propargylcinchonidine [PCD] | – | – | – | 28.6 µM | – | – | – | 4 to 30 | (MA) (IC50 range of 4-30 μg/mL are considered medium active (abbreviated as MA)) | 9.3 | 28 | (MA) (IC50 range of 4-30 μg/mL are considered medium active (abbreviated as MA)) | 10.0 | 30.1 | (MA) (IC50 range of 4-30 μg/mL are considered medium active (abbreviated as MA)) | 16.0 | 48.1 | 9.5 | reduction in cytotoxic activity on change to the opposite configuration (8S,9R) ([2]; PCD versus PCN, general statement, not tied to one cell line): about 3 fold
